The record followed here is PubChem BioAssay AID292 (DTP/NCI, 2004).

The test system of the test is B6C3F1 mice, ip Sarcoma M5076, median survival T/C. Description: NCI In Vivo Anticancer Drug Screen. Data for tumor model Sarcoma M5076 (intraperitoneal) in B6C3F1 mice. The settings on record: endpoint: median survival time, higher = longer survival. The method in brief:
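The readout is a ratio of survival in drug-treated animals to survival in animals given vehicle alone, taken in mice bearing a transplanted tumour line.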

Setting [1] is: dose: 50.0 mg/kg/injection, schedule: Q04DX004 (ip), vehicle: saline with Tween-80.
[2] abbreviates: dose: 100.0 mg/kg/injection, schedule: Q04DX004 (ip), vehicle: saline with Tween-80.
[3] abbreviates: dose: 400.0 mg/kg/injection, schedule: Q04DX004 (ip), vehicle: saline with Tween-80.
The mark [4] stands for this setting: dose: 400.0 mg/kg/injection, schedule: Q04DX004 (ip), vehicle: Klucel (hydroxypropylcellulose) (HPC).
[5] abbreviates: dose: 200.0 mg/kg/injection, schedule: Q04DX004 (ip), vehicle: saline with Tween-80.

SMILES strings stand for the structures. Several values for one entry are separate records, joined by “and”; a condition that tells them apart may be missing. Equal entries are not always repeated. Inconclusive results and toxic doses are left out.

Regarding `COC12[C@@H]3N[C@@H]3CN1C1=C(C(=O)C(NCCSSCCNC3=C(C)C(=O)C4=C(C3=O)C(COC(N)=O)[C@]3(OC)C5N[C@@H]5CN43)=C(C)C1=O)[C@@H]2COC(N)=O` (stereo partly specified), the T/C (dose: 3.0 mg/kg/injection, schedule: Q04DX004 (ip), vehicle: other) was 161 % of control; the T/C (dose: 6.0 mg/kg/injection, schedule: Q04DX004 (ip), vehicle: other) is 216 % of control; the T/C (dose: 12.0 mg/kg/injection, schedule: Q04DX004 (ip), vehicle: other) is 91 % of control; the T/C (dose: 12.5 mg/kg/injection, schedule: Q04DX004 (ip), vehicle: other) is 253 % of control.

Regarding `Clc1cccc(Cl)c1C(Nc1nncs1)Nc1nncs1`, the T/C is 112 % of control and 122 % of control under setting [1]; 123 % of control under setting [2]; 164 % of control under setting [3]; 157 % of control and 195 % of control (dose: 800.0 mg/kg/injection, schedule: Q04DX004 (ip), vehicle: saline with Tween-80).

As to `CC1(CO)C(O)CCC2(C)C1CCC1CC3CC12CCC3(O)CO` (stereo unspecified), the T/C by setting is: (dose: 51.8 mg/kg/injection, schedule: Q04DX005 (ip), vehicle: Klucel (hydroxypropylcellulose) (HPC)) 120 % of control; (dose: 86.4 mg/kg/injection, schedule: Q04DX004 (ip), vehicle: Klucel (hydroxypropylcellulose) (HPC)) 120 % of control; (dose: 86.4 mg/kg/injection, schedule: Q04DX005 (ip), vehicle: Klucel (hydroxypropylcellulose) (HPC)) 124 % of control; (dose: 144.0 mg/kg/injection, schedule: Q04DX004 (ip), vehicle: Klucel (hydroxypropylcellulose) (HPC)) 116 % of control; (dose: 144.0 mg/kg/injection, schedule: Q04DX005 (ip), vehicle: Klucel (hydroxypropylcellulose) (HPC)) 123 % of control; (dose: 240.0 mg/kg/injection, schedule: Q04DX005 (ip), vehicle: Klucel (hydroxypropylcellulose) (HPC)) 122 % of control. Moreover, the T/C under setting [4] is 151 % of control and 164 % of control.

As to `CCN(CC)Cc1c(OC)ccc2[nH]c3c4ccc(Cl)cc4ncc3c12`, the T/C reads like this: (dose: 15.63 mg/kg/injection, schedule: Q04DX004 (ip), vehicle: saline with Tween-80) 104 % of control; (dose: 31.25 mg/kg/injection, schedule: Q04DX004 (ip), vehicle: saline with Tween-80) 106 % of control; (dose: 62.5 mg/kg/injection, schedule: Q04DX004 (ip), vehicle: saline with Tween-80) 105 % of control; (dose: 125.0 mg/kg/injection, schedule: Q04DX004 (ip), vehicle: saline with Tween-80) 101 % of control; (dose: 250.0 mg/kg/injection, schedule: Q04DX004 (ip), vehicle: saline with Tween-80) 100 % of control.

Regarding `CC1=CC(C)(C)N=C2SC(COc3ccccc3)=NN12`, the T/C by setting is: under setting [1], 104 % of control; under setting [2], 96 % of control; under setting [5], 93 % of control; under setting [3], 99 % of control.

Turning to `O=[N+]([O-])O.[Ga]`, the T/C (dose: 25.0 mg/kg/injection, schedule: Q04DX005 (ip), vehicle: saline) was 111 % of control; the T/C (dose: 50.0 mg/kg/injection, schedule: Q04DX005 (ip), vehicle: saline) is 115 % of control; the T/C (dose: 100.0 mg/kg/injection, schedule: Q04DX005 (ip), vehicle: saline) is 115 % of control.

For the compound `CCOC(=O)C1=C(C)O/C(=C/c2cccc(Cl)c2)C1=O`, the T/C under setting [2] was 99 % of control, the T/C under setting [5] is 100 % of control and the T/C under setting [3] is 93 % of control.

Turning to `CC(=O)NO`, the T/C is 97 % of control and 100 % of control and 105 % of control (dose: 100.0 mg/kg/injection, schedule: Q04DX004 (ip), vehicle: water); 101 % of control and 103 % of control and 104 % of control (dose: 200.0 mg/kg/injection, schedule: Q04DX004 (ip), vehicle: water); 107 % of control and 109 % of control (dose: 400.0 mg/kg/injection, schedule: Q04DX004 (ip), vehicle: water); 106 % of control and 108 % of control (dose: 800.0 mg/kg/injection, schedule: Q04DX004 (ip), vehicle: water); 113 % of control and 115 % of control (dose: 1600.0 mg/kg/injection, schedule: Q04DX004 (ip), vehicle: water).

With `c1ccc(OCC2CO2)c(OCC2CO2)c1` (stereo unspecified), the T/C is, setting by setting: under setting [1], 111 % of control and 121 % of control; under setting [2], 118 % of control and 123 % of control; under setting [5], 156 % of control and 173 % of control.

With `O=S(=O)(O)C1=CC(=N\Cl)/C=CC/1=N/Cl`, the T/C was 104 % of control (dose: 37.5 mg/kg/injection, schedule: Q04DX004 (ip), vehicle: saline with Tween-80); 104 % of control (dose: 75.0 mg/kg/injection, schedule: Q04DX004 (ip), vehicle: saline with Tween-80); 106 % of control (dose: 150.0 mg/kg/injection, schedule: Q04DX004 (ip), vehicle: saline with Tween-80); 108 % of control (dose: 300.0 mg/kg/injection, schedule: Q04DX004 (ip), vehicle: saline with Tween-80).

For `COC1C(N)C(OC2C(Oc3cccc4c(O)c5c(=O)oc6ccc(C)c7c(=O)oc(c34)c5c67)OC(C)C(O)C2(C)O)OC(C)C1O` (stereo unspecified), the T/C is, setting by setting: (dose: 2.5 mg/kg/injection, schedule: Q04DX004 (ip), vehicle: other) 153 % of control; (dose: 10.0 mg/kg/injection, schedule: Q04DX004 (ip), vehicle: DMSO) 246 % of control; (dose: 10.0 mg/kg/injection, schedule: Q04DX004 (ip), vehicle: other) 165 % of control.

With `O=[n+]1c2c(n([O-])c3ccccc31)CCC2`, the T/C (dose: 21.9 mg/kg/injection, schedule: Q04DX004 (ip), vehicle: saline with Tween-80) was 103 % of control; the T/C (dose: 43.75 mg/kg/injection, schedule: Q04DX004 (ip), vehicle: saline with Tween-80) is 102 % of control; the T/C (dose: 87.5 mg/kg/injection, schedule: Q04DX004 (ip), vehicle: saline with Tween-80) was 104 % of control; the T/C (dose: 175.0 mg/kg/injection, schedule: Q04DX004 (ip), vehicle: saline with Tween-80) was 107 % of control and 108 % of control; the T/C (dose: 350.0 mg/kg/injection, schedule: Q04DX004 (ip), vehicle: saline with Tween-80) is 109 % of control and 110 % of control.

Take `CC1OC2CC(O)C1(O)C1=C2C(O)=C(C(N)=O)C(=N)C1=O` (stereo unspecified): the T/C by setting is: (dose: 1.25 mg/kg/injection, schedule: Q04DX004 (ip), vehicle: saline) 108 % of control; (dose: 2.5 mg/kg/injection, schedule: Q04DX004 (ip), vehicle: saline) 101 % of control; (dose: 5.0 mg/kg/injection, schedule: Q04DX004 (ip), vehicle: saline) 100 % of control.

Consider `CN(C)C(=O)c1cccc(COc2ccc(N3C(N)=NC(N)=NC3(C)C)cc2Cl)c1`, for which the T/C by setting is: (dose: 6.25 mg/kg/injection, schedule: Q04DX004 (ip), vehicle: suspension in saline) 90 % of control; (dose: 12.5 mg/kg/injection, schedule: Q04DX004 (ip), vehicle: suspension in saline) 102 % of control; (dose: 25.0 mg/kg/injection, schedule: Q04DX004 (ip), vehicle: suspension in saline) 93 % of control; (dose: 50.0 mg/kg/injection, schedule: Q04DX004 (ip), vehicle: suspension in saline) 97 % of control; (dose: 100.0 mg/kg/injection, schedule: Q04DX004 (ip), vehicle: suspension in saline) 113 % of control.

`Nc1ncnc2c1c1c(=O)[nH]c(=O)[nH]c1n2C1OC(CO)C(O)C1O` (stereo unspecified): the T/C is 106 % of control and 115 % of control (dose: 50.0 mg/kg/injection, schedule: Q04DX004 (ip), vehicle: distilled water + Tween-80); 117 % of control (dose: 100.0 mg/kg/injection, schedule: Q04DX004 (ip), vehicle: distilled water + Tween-80); 104 % of control and 108 % of control (dose: 200.0 mg/kg/injection, schedule: Q04DX004 (ip), vehicle: distilled water + Tween-80); 116 % of control (dose: 400.0 mg/kg/injection, schedule: Q04DX004 (ip), vehicle: distilled water + Tween-80).

On to `C[C@]12C=CC(=O)C=C1CC[C@@H]1[C@@H]2C(=O)C[C@@]2(C)[C@H]1CC[C@]2(O)C(=O)CO`, for which the T/C is 105 % of control and 123 % of control (dose: 50.0 mg/kg/injection, schedule: Q04DX004 (ip), vehicle: Klucel (hydroxypropylcellulose) (HPC)); 118 % of control (dose: 100.0 mg/kg/injection, schedule: Q04DX004 (ip), vehicle: Klucel (hydroxypropylcellulose) (HPC)); 116 % of control (dose: 200.0 mg/kg/injection, schedule: Q04DX004 (ip), vehicle: Klucel (hydroxypropylcellulose) (HPC)); 94 % of control under setting [4].

As for `O=C1C=C(N2CC2)C(=O)C(N2CC2)=C1N1CC1`, the T/C runs as follows: (dose: 1.56 micrograms/kg/injection, schedule: Q04DX004 (ip), vehicle: saline) 99 % of control; (dose: 3.12 micrograms/kg/injection, schedule: Q04DX004 (ip), vehicle: saline) 103 % of control; (dose: 6.25 micrograms/kg/injection, schedule: Q04DX004 (ip), vehicle: saline) 111 % of control; (dose: 12.5 micrograms/kg/injection, schedule: Q04DX004 (ip), vehicle: saline) 111 % of control; (dose: 25.0 micrograms/kg/injection, schedule: Q04DX004 (ip), vehicle: saline) 114 % of control.
